The conditions of data set [1]: 101.33 kPa, Liquid.
Data set [2] in a line: refractive index (Na D-line) (dimensionless). As to conditions: 293.15 K; 101.33 kPa; Liquid; Standard Abbe refractometry.
Data set [3] can be described thus: Boiling temperature at pressure P. As to conditions: Liquid, Distillation.

The structures appear in SMILES notation. ± gives the expanded uncertainty stated by the source.

`COC(=O)CCC(=O)OC` [dimethyl 1,4-butanedioate]: the mass density in data set [1] (293.15 K) turned out to be 1119.13 ± 1.5 kg/m3. The refractive index in data set [2] was determined as 1.41969 ± 0.00082. Further, in data set [3] (101.33 kPa), the “Boiling temperature at pressure P” value came out at 196.1 ± 0.2 °C.

As for `COC(=O)CCCCC(=O)OC` [dimethyl 1,6-hexanedioate], the mass density in data set [1] (293.15 K) worked out at 1061.72 ± 0.61 kg/m3. In data set [2], the refractive index is 1.42825 ± 0.00075. The “Boiling temperature at pressure P” value in data set [3] (1.733 kPa) is 115 ± 1 °C.

Consider `COC(=O)CCCC(=O)OC` [dimethyl pentanedioate], for which the mass density in data set [1] (293.15 K) was found to be 1087.67 ± 0.68 kg/m3. Further, the refractive index in data set [2] is 1.42454 ± 0.00075. In addition, the “Boiling temperature at pressure P” value in data set [3] (101.33 kPa) amounted to 214.2 ± 0.2 °C.

As for `CCC(=O)O` [propanoic acid], in data set [1] (298.15 K), the mass density amounted to 988 ± 0.5 kg/m3. Moreover, the refractive index in data set [2] came out at 1.3808 ± 0.00075. Moreover, in data set [3] (101.33 kPa), the “Boiling temperature at pressure P” value came to 141.4 ± 0.2 °C.

What is called mass density is mass per unit of volume. One may read the refractive index as the speed of light in vacuum divided by its phase velocity in the sample.
